How the values were obtained:
ryegrass, Italian = experiment: Test A pre-/postemergence herbicide test; format: in vivo, Lolium multiflorum
How it was run: (§1)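 Formulated compound (non-phytotoxic solvent, surfactant) sprayed pre- onto soil of seeded loam/sand pots or post- onto seedlings at 1–2 leaves; ~10 d greenhouse; 0–100 visual control rating versus untreated.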

barnyardgrass [1] = experiment: Test C flooded paddy test; format: in vivo, Echinochloa crus-galli; conditions: Flood
How it was run: (§2)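 Visual injury scored against controls after 13 to 15 days in the greenhouse, using 0 (no effect) to 100 (complete control). Test compounds went straight into paddy water held 3 cm above the soil surface on 2-leaf-stage plants, with that flood depth maintained for the whole test.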

barnyardgrass [2] = experiment: Test C pre-/postemergence herbicide test; format: in vivo, Echinochloa crus-galli
How it was run: (§3)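 Compound solutions contained surfactant in a non-phytotoxic solvent. These were sprayed onto pots of loam/sand sown with seeds, and onto young plants (2 to 18 cm, 1- to 4-leaf) in sphagnum peat–vermiculite mix. Visual injury scores (0 none, 100 complete control) were recorded after 13 to 15 days.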

rice = experiment: Test C flooded paddy test; format: in vivo, Oryza sativa; conditions: Flood
How it was run: as §2

sedge, umbrella = experiment: Test C flooded paddy test; format: in vivo, Cyperus difformis; conditions: Flood
How it was run: as §2

ragweed = experiment: Test A pre-/postemergence herbicide test; format: in vivo, Ambrosia elatior
How it was run: as §1

lambsquarters = experiment: Test C pre-/postemergence herbicide test; format: in vivo, Chenopodium album
How it was run: as §3

kochia = experiment: Test A pre-/postemergence herbicide test; format: in vivo, Kochia scoparia
How it was run: as §1

[3] = Postemergence, 125 g ai/ha, visual rating on 0 to 100 scale (0 no effect, 100 complete control), approx. 10 days
[4] = Postemergence, 500 g ai/ha, 0 to 100 scale (0 no effect, 100 complete control)
[5] = Preemergence, 125 g ai/ha, 0 to 100 scale where 0 is no effect and 100 is complete control
[6] = preemergence, 500 g ai/ha, 0 to 100 scale, 0 is no effect and 100 is complete control
[7] = 125 g ai/ha, scale of 0 to 100 where 0 is no effect and 100 is complete control, 13 to 15 days
[8] = 250 g ai/ha, scale of 0 to 100 where 0 is no effect and 100 is complete control, 13 to 15 days
[9] = Postemergence, 8 g ai/ha, scale 0 to 100 (0 no effect, 100 complete control)
[10] = Postemergence, 16 g ai/ha, scale 0 to 100 (0 no effect, 100 complete control)
[11] = Postemergence, 31 g ai/ha, scale 0 to 100 (0 no effect, 100 complete control)
[12] = Postemergence, 62 g ai/ha, scale 0 (no effect) to 100 (complete control)
[13] = Preemergence, 31 g ai/ha, scale 0 to 100, 0 is no effect and 100 is complete control
[14] = Preemergence, 62 g ai/ha, scale 0 to 100 (0 no effect, 100 complete control)
[15] = Preemergence, 8 g ai/ha, scale 0 to 100
[16] = Preemergence, 16 g ai/ha, scale 0 to 100
[17] = Postemergence, 125 g ai/ha, 0 to 100 scale, 0 is no effect, 100 is complete control
[18] = 62 g ai/ha, scale of 0 to 100 where 0 is no effect and 100 is complete control, 13 to 15 days
[19] = Postemergence, 125 g ai/ha, scale 0 to 100 (0 no effect, 100 complete control)
[20] = Preemergence, 125 g ai/ha, scale 0 to 100 (0 no effect, 100 complete control)

Row | SMILES | Plant response rating, Ryegrass, Italian (ryegrass, Italian; [3]) | Plant response rating, Ryegrass, Italian (ryegrass, Italian; [4]) | Plant response rating, Ryegrass, Italian (ryegrass, Italian; [5]) | Plant response rating, Ryegrass, Italian (ryegrass, Italian; [6]) | Plant response rating, Barnyardgrass (barnyardgrass [1]; [7]) | Plant response rating, Barnyardgrass (barnyardgrass [1]; [8]) | Plant response rating, Barnyardgrass (barnyardgrass [1]; 500 g ai/ha, scale 0 to 100) | Plant response rating, Barnyardgrass (barnyardgrass [2]; [10]) | Plant response rating, Barnyardgrass (barnyardgrass [2]; [11]) | Plant response rating, Barnyardgrass (barnyardgrass [2]; [12]) | Barnyardgrass plant response rating (barnyardgrass [2]; [13]) | Barnyardgrass plant response rating (barnyardgrass [2]; [14]) | Plant response rating, Barnyardgrass (barnyardgrass [2]; [16]) | Plant response rating, Rice (rice; [7]) | Plant response rating, Rice (rice; [8]) | Plant response rating, Rice (rice; 500 g ai/ha, scale 0 to 100) | Plant response rating, Sedge, Umbrella (sedge, umbrella; [7]) | Plant response rating, Sedge, Umbrella (sedge, umbrella; [8]) | Plant response rating, Sedge, Umbrella (sedge, umbrella; 500 g ai/ha, scale 0 to 100) | Plant response rating, Ragweed (ragweed; [3]) | further results
1 | CN1CC(c2ccc(F)cc2)C(C(=O)Nc2cccc(F)c2F)C1=O (centres unmarked) [Compound 271] | 0 | 40 | 0 | 30 | 40 | 45 | 75 | 0 | 0 | 0 | 90 | 95 | 75 | 0 | 0 | 0 | 0 | 0 | 0 | 0 | Plant response rating, Barnyardgrass (barnyardgrass [1]; 1000 g ai/ha, scale 0 to 100): 80; Plant response rating, Barnyardgrass (barnyardgrass [2]; [9]): 0; Plant response rating, Barnyardgrass (barnyardgrass [2]; [15]): 0; Plant response rating, Rice (rice; 1000 g ai/ha, scale 0 to 100): 0; Plant response rating, Sedge, Umbrella (sedge, umbrella; 1000 g ai/ha, scale 0 to 100): 0; Plant response rating, Ragweed (ragweed; [4]): 60; Plant response rating, Ragweed (ragweed; [5]): 20; Plant response rating, Ragweed (ragweed; [6]): 80; Plant response rating, Lambsquarters (lambsquarters; [9]): 10; Plant response rating, Lambsquarters (lambsquarters; [10]): 45; Plant response rating, Lambsquarters (lambsquarters; [11]): 50; Plant response rating, Lambsquarters (lambsquarters; [12]): 55; Lambsquarters plant response rating (lambsquarters; [13]): 0; Lambsquarters plant response rating (lambsquarters; [14]): 20; Plant response rating, Lambsquarters (lambsquarters; [15]): 0; Plant response rating, Lambsquarters (lambsquarters; [16]): 0; Plant response rating, Kochia (kochia; [17]): 60; Plant response rating, Kochia (kochia; [4]): 80; Plant response rating, Kochia (kochia; [5]): 50; Plant response rating, Kochia (kochia; [6]): 80
2 | CN1CC(c2cccc(C(F)(F)F)c2)C(C(=O)Nc2ccccc2F)C1=O (centres unmarked) [Compound 277] | 30 | 40 | 30 | 30 | 65 | 70 | 70 | 5 | 15 | 70 | 95 | 98 | 95 | 0 | 0 | 0 | 0 | 0 | 0 | 30 | Plant response rating, Barnyardgrass (barnyardgrass [1]; [18]): 50; Plant response rating, Barnyardgrass (barnyardgrass [2]; [19]): 80; Plant response rating, Barnyardgrass (barnyardgrass [2]; [20]): 98; Plant response rating, Rice (rice; [18]): 0; Plant response rating, Sedge, Umbrella (sedge, umbrella; [18]): 0; Plant response rating, Ragweed (ragweed; [4]): 30; Plant response rating, Ragweed (ragweed; [5]): 20; Plant response rating, Ragweed (ragweed; [6]): 20; Plant response rating, Lambsquarters (lambsquarters; [10]): 25; Plant response rating, Lambsquarters (lambsquarters; [11]): 30; Plant response rating, Lambsquarters (lambsquarters; [12]): 40; Plant response rating, Lambsquarters (lambsquarters; [19]): 40; Lambsquarters plant response rating (lambsquarters; [13]): 20; Lambsquarters plant response rating (lambsquarters; [14]): 75; Plant response rating, Lambsquarters (lambsquarters; [20]): 80; Plant response rating, Lambsquarters (lambsquarters; [16]): 0; Plant response rating, Kochia (kochia; [17]): 30; Plant response rating, Kochia (kochia; [4]): 30; Plant response rating, Kochia (kochia; [5]): 30; Plant response rating, Kochia (kochia; [6]): 60

Reference: US10294202B2, “Pyrrolidinones as herbicides” (FMC Corporation, priority 2013, dated 2019)
